The target in this experiment is T1, recombinant human FAAH (rhFAAH) (Homo sapiens, UniProt O00519).
T1 construct: purchased Cayman Chemical (Ann Arbor, MI, USA)
T1 sequence (O00519 1-579): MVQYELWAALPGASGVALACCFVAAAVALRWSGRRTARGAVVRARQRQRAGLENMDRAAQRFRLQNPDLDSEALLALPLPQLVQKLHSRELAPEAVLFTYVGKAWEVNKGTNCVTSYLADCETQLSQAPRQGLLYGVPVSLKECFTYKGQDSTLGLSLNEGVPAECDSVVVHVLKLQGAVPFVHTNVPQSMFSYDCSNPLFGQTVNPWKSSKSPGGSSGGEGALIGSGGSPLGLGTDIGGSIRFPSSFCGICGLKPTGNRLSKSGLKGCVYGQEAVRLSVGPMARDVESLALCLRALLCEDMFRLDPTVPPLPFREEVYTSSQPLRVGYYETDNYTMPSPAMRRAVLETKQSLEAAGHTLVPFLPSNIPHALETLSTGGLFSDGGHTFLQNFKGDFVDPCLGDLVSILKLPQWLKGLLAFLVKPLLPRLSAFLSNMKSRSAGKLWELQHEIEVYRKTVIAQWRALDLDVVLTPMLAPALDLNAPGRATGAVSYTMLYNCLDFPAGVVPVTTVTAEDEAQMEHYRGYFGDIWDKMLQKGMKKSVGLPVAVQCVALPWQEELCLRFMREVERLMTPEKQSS
Kind of experiment: FAAH substrate evaluation (acid metabolite formation). Conditions: observed rate constant for acid metabolite formation; 0.5 ng/μL rhFAAH, 1 μM test compound, room temperature, 0-60 minutes. Type of experiment: biochemical. How it is done:
Purified recombinant human FAAH (rhFAAH) was purchased from Cayman Chemical (Ann Arbor, MI, USA). The total volume for each incubation was 400 μL containing a final 0.5 ng/μL rhFAAH, 1 μM test compound, 1.25% ethanol or 1 μM PF-3845 (FAAH inhibitor), and 0.1% bovine serum albumin in Tris-EDTA buffer at pH 8.0). The positive control was LL-341001. The incubation was conducted at the room temperature. At 0, 5, 15, 30 and 60 minutes, an aliquot of 30 μL reaction mixtures was removed and mixed with 300 μL acetonitrile containing 5 ng/mL terfenadine and 10 ng/mL tolbutamide as internal standards to quench the reaction. The resulting mixture was centrifuged at 4000 rpm, 4° C. for 15 minutes, and 100 μL supernatant was ready for LC-MS/MS analysis to measure the formation of acid metabolite.
Acquity Ultra Performance LC system from Waters was used for sample analysis. The chromatography was performed on a reverse phase Kinetex 2.6 μm C18 column, 2.1×30 mm, 100 Å. The mobile phase A comprised of 0.1% formic acid in water and mobile phase B comprised of 0.1% formic acid in acetonitrile with a 2-min run time at the flow rate of 0.8 mL/min for the acid metabolite from positive control or a 1.5 min run time at the flow rate of 0.9 mL/min for the acid metabolite of test compounds. The mass spectrometer (API-5500 and API Q Trap 4000 Applied Biosystems/MDS SCIEX Instruments, Framingham, MA, USA) was operated under ESI positive or negative ion MRM mode.
The formation of acid metabolite was monitored and quantified using one calibration point of 1 μM. The observed rate constant (ke) for the acid metabolite formation was calculated by plotting the metabolite concentration versus time of incubation with the slope being ke and is shown in Table 1.

For 35 compounds, ke results are on record in patent US12637413B2, “Fatty acid amide hydrolase (FAAH) cleavable prodrugs of thyromimetics and combination with peripherally restricted FAAH inhibitors” (Autobahn Therapeutics, Inc., priority 2021, dated 2026).

For the compound `C=CCN(C)C(=O)COc1cc(Cl)c(Cc2ccc(O)c(C(C)C)c2)c(Cl)c1` [Compound 128, N-allyl-2-(3,5-dichloro-4-(4-hydroxy-3-isopropylbenzyl)phenoxy)-N-methylacetamide], the ke result was “B (ke is less than 0.1 and more than 0)”.
Turning to `CC(C)c1cc(Cc2c(Cl)cc(OCC(=O)N[C@H](C)CO)cc2Cl)ccc1O` [Compound 9], the ke result is on record as “A (ke is more than or equal to 0.1)”.
With `CC(C)CNC(=O)COc1cc(Cl)c(Cc2ccc(O)c(C(C)C)c2)c(Cl)c1` [Compound 121, 2-(3,5-dichloro-4-(4-hydroxy-3-isopropylbenzyl)phenoxy)-N-isobutylacetamide] the entry was “C (ke is 0)”; with `CCN(C)C(=O)COc1cc(Cl)c(Cc2ccc(O)c(C(C)C)c2)c(Cl)c1` [Compound 130, 2-(3,5-dichloro-4-(4-hydroxy-3-isopropylbenzyl)phenoxy)-N-ethyl-N-methylacetamide], “B (ke is less than 0.1 and more than 0)”.
With `CC(C)c1cc(Cc2c(Cl)cc(OCC(=O)NCC(F)(F)F)cc2Cl)ccc1O` [Compound 16] the entry was “A (ke is more than or equal to 0.1)”; with `CC(C)c1cc(Cc2c(Cl)cc(OCC(=O)NC3CCC3)cc2Cl)ccc1O` [Compound 127, N-cyclobutyl-2-(3,5-dichloro-4-(4-hydroxy-3-isopropylbenzyl)phenoxy)acetamide], “B (ke is less than 0.1 and more than 0)”.
As for `CCCNC(=O)COc1cc(Cl)c(Cc2ccc(O)c(C(C)C)c2)c(Cl)c1` [Compound 3], the entry is “A (ke is more than or equal to 0.1)”; as for `COc1ccc(NC(=O)COc2cc(Cl)c(Cc3ccc(O)c(C(C)C)c3)c(Cl)c2)nn1` [Compound 113, 2-(3,5-dichloro-4-(4-hydroxy-3-isopropylbenzyl)phenoxy)-N-(6-methoxypyridazin-3-yl)acetamide], “A (ke is more than or equal to 0.1)”; as for `CONC(=O)COc1cc(Cl)c(Cc2ccc(O)c(C(C)C)c2)c(Cl)c1` [Compound 28], “A (ke is more than or equal to 0.1)”.
With `Cc1noc(NC(=O)COc2cc(Cl)c(Cc3ccc(O)c(C(C)C)c3)c(Cl)c2)c1C` [Compound 103, 2-(3,5-dichloro-4-(4-hydroxy-3-isopropylbenzyl)phenoxy)-N-(3,4-dimethylisoxazol-5-yl)acetamide], the ke entry is “A (ke is more than or equal to 0.1)”.
As for `CNN(C)C(=O)COc1cc(Cl)c(Cc2ccc(O)c(C(C)C)c2)c(Cl)c1` [Compound 124, 2-(3,5-dichloro-4-(4-hydroxy-3-isopropylbenzyl)phenoxy)-N,N′-dimethylacetohydrazide], the entry is “B (ke is less than 0.1 and more than 0)”.
As for `CC(C)c1cc(Cc2c(Cl)cc(OCC(=O)NC[C@H](C)O)cc2Cl)ccc1O` [Compound 8], the entry is “B (ke is less than 0.1 and more than 0)”; as for `CC(C)c1c(O)ccc(Cc2c(Cl)cc(OCC(=O)N(C)C)c(F)c2Cl)c1F` [Compound 40], “B (ke is less than 0.1 and more than 0)”; as for `CC(C)c1cc(Cc2c(Cl)cc(OCC(=O)NCc3ccccc3)cc2Cl)ccc1O` [Compound 22], “A (ke is more than or equal to 0.1)”.
As for `CC(C)c1cc(Cc2c(Cl)cc(OCC(=O)NCCO)cc2Cl)ccc1O` [Compound 6], the entry is “A (ke is more than or equal to 0.1)”; as for `CC(C)c1cc(Cc2c(Cl)cc(OCC(=O)Nc3cccnn3)cc2Cl)ccc1O` [Compound 104, 2-(3,5-dichloro-4-(4-hydroxy-3-isopropylbenzyl)phenoxy)-N-(pyridazin-3-yl)acetamide], “A (ke is more than or equal to 0.1)”; as for `CC(C)c1cc(Cc2c(Cl)cc(OCC(=O)N(C)CCF)cc2Cl)ccc1O` [Compound 125, 2-(3,5-dichloro-4-(4-hydroxy-3-isopropylbenzyl)phenoxy)-N-(2-fluoroethyl)-N-methylacetamide], “B (ke is less than 0.1 and more than 0)”.
Regarding `CCCN(C)C(=O)COc1cc(Cl)c(Cc2ccc(O)c(C(C)C)c2)c(Cl)c1` [Compound 129, 2-(3,5-dichloro-4-(4-hydroxy-3-isopropylbenzyl)phenoxy)-N-methyl-N-propylacetamide], the ke entry was “B (ke is less than 0.1 and more than 0)”.
With `CC(C)c1c(O)ccc(Cc2c(Cl)cc(OCC(=O)NN(C)C)cc2Cl)c1F` [Compound 45] the entry was “A (ke is more than or equal to 0.1)”; with `CC(C)c1cc(Cc2c(Cl)cc(OCC(=O)Nc3cccc(F)c3)cc2Cl)ccc1O` [Compound 25], “A (ke is more than or equal to 0.1)”; with `CC(C)c1cc(Cc2c(Cl)cc(OCC(=O)NC(C)(C)C)cc2Cl)ccc1O` [Compound 119, N-(tert-butyl)-2-(3,5-dichloro-4-(4-hydroxy-3-isopropylbenzyl)phenoxy)acetamide], “C (ke is 0)”.
On to `CC#CCNC(=O)COc1cc(Cl)c(Cc2ccc(O)c(C(C)C)c2)c(Cl)c1` [Compound 106, N-(but-2-yn-1-yl)-2-(3,5-dichloro-4-(4-hydroxy-3-isopropylbenzyl)phenoxy)acetamide], for which the ke entry is “B (ke is less than 0.1 and more than 0)”.
With `CC(C)c1cc(Cc2c(Cl)cc(OCC(=O)N[C@@H](C)CO)cc2Cl)ccc1O` [Compound 10] the entry was “A (ke is more than or equal to 0.1)”; with `CC(C)c1cc(Cc2c(Cl)cc(OCC(=O)NO)cc2Cl)ccc1O` [Compound 26], “A (ke is more than or equal to 0.1)”.
As for `CNC(=O)COc1cc(Cl)c(Cc2ccc(O)c(C(C)C)c2)c(Cl)c1F` [Compound 37], the entry is “B (ke is less than 0.1 and more than 0)”.
Turning to `CC(C)c1cc(Cc2c(Cl)cc(OCC(=O)NC3CCCCC3)cc2Cl)ccc1O` [Compound 105, N-cyclohexyl-2-(3,5-dichloro-4-(4-hydroxy-3-isopropylbenzyl)phenoxy)acetamide], the ke entry was “C (ke is 0)”.
As for `CC(C)c1cc(Cc2c(Cl)cc(OCC(=O)NCCc3ccc(O)c(O)c3)cc2Cl)ccc1O` [Compound 24], the entry is “B (ke is less than 0.1 and more than 0)”.
With `CC(C)c1cc(Cc2c(Cl)cc(OCC(=O)NC3CC3)cc2Cl)ccc1O` [Compound 17] the entry was “A (ke is more than or equal to 0.1)”.
For the compound `CC(C)c1cc(Cc2c(Cl)cc(OCC(=O)NCCS(=O)O)cc2Cl)ccc1O` [Compound 13], the ke entry is “B (ke is less than 0.1 and more than 0)”.
As for `CC(C)c1cc(Cc2c(Cl)cc(OCC(=O)NCCN)cc2Cl)ccc1O` [Compound 12], the entry is “B (ke is less than 0.1 and more than 0)”.
With `CNC(=O)COc1cc(Cl)c(Cc2ccc(O)c(C(C)C)c2F)c(Cl)c1` [Compound 31] the entry was “A (ke is more than or equal to 0.1)”.
As for `CC(C)c1c(O)ccc(Cc2c(Cl)cc(OCC(=O)N(C)C)cc2Cl)c1F` [Compound 32], the ke entry is on record as “A (ke is more than or equal to 0.1)”.
Turning to `CC(C)c1cc(Cc2c(Cl)cc(OCC(=O)N(C)C)c(F)c2Cl)ccc1O` [Compound 38], the ke entry is “B (ke is less than 0.1 and more than 0)”.
With `C=CCNC(=O)COc1cc(Cl)c(Cc2ccc(O)c(C(C)C)c2)c(Cl)c1` [Compound 4] the entry was “A (ke is more than or equal to 0.1)”; with `CC(C)c1cc(Cc2c(Cl)cc(OCC(=O)N(C)CCO)cc2Cl)ccc1O` [Compound 123, 2-(3,5-dichloro-4-(4-hydroxy-3-isopropylbenzyl)phenoxy)-N-(2-hydroxyethyl)-N-methylacetamide], “B (ke is less than 0.1 and more than 0)”.
